Laboratory results reported in patent US9273040B2 (Merck Sharp & Dohme Corp., priority 2011, dated 2016).
pIC50: −log10 of the molar value.

Columns and labels:
Type in all cases: cell-based
[1] = molecular target: T1, human Nav1.7 channels stably expressed in HEK 293 cells (Homo sapiens, UniProt Q15858); experiment: IonWorks Quattro automated patch-clamp, sodium current, inactivated state block; details: read-out: potency for the Nav 1.7 sodium ion channel (as measured by IonWorks)
T1 construct: expressed in transfected cells
T1 sequence (Q15858 whole entry): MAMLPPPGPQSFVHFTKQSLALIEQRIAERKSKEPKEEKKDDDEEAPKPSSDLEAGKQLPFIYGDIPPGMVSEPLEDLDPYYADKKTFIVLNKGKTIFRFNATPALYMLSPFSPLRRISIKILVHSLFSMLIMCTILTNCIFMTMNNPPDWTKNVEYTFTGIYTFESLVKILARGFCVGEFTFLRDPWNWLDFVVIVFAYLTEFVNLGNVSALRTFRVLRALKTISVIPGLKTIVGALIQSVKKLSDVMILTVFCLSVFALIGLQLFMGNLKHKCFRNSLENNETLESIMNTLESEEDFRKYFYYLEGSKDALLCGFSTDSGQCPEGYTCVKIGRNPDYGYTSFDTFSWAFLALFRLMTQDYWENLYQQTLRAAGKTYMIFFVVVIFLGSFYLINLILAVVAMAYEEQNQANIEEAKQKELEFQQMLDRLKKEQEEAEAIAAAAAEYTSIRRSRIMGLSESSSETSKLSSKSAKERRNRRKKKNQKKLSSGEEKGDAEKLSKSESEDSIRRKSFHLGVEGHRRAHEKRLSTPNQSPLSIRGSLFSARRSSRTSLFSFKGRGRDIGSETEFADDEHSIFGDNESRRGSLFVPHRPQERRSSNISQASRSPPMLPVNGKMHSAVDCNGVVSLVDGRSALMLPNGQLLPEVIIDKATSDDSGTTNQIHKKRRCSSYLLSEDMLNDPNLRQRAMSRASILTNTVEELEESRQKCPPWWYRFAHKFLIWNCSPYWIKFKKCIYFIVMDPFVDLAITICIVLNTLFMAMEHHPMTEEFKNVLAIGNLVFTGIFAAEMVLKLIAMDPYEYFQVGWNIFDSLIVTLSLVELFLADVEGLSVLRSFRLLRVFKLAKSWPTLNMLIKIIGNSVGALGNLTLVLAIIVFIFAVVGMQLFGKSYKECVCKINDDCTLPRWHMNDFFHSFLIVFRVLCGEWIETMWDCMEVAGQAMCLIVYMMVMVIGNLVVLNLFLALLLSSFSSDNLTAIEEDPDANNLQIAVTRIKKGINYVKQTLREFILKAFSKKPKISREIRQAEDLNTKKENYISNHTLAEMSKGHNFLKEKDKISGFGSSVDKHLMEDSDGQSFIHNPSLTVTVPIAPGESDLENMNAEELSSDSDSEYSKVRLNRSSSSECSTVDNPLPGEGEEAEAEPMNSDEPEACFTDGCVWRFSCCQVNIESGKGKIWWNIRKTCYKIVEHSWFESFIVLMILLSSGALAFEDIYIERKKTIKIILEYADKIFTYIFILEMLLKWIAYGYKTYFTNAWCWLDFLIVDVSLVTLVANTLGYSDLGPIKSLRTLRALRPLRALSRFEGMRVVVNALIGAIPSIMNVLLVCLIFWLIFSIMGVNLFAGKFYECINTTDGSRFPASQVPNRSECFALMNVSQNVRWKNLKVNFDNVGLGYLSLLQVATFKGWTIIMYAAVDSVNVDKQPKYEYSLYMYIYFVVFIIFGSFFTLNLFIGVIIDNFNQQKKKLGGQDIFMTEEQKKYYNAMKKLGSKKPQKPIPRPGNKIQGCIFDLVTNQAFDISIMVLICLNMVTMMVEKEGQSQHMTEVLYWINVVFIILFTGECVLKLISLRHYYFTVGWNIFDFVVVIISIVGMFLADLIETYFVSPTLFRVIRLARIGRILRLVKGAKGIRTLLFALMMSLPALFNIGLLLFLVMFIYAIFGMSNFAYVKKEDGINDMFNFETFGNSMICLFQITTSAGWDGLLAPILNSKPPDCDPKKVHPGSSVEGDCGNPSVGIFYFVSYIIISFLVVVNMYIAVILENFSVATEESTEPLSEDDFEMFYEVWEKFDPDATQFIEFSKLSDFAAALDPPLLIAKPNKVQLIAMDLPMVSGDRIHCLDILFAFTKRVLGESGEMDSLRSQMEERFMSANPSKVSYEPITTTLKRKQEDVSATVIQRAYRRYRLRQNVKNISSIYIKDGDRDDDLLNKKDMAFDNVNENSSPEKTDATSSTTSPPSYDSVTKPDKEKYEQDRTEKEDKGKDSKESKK
Procedure: (§1) Compounds were tested on human Nav1.7 and Nav1.5 channels stably expressed in HEK 293 cells. […] Cells were sealed on a planar substrate using the Population Patch Plate (PPC) technology. Electrical access was obtained using both nystatin and amphotericin. A double-pulse protocol was used for the determination of IC50 values for inactivated state block. Nav1.7 and Nav1.5 expressing cells were voltage clamped at −100 mV and −110 mV, respectively. A depolarizing prepulse to −10 mV (Nav1.7) or −30 mV (Nav1.5) for 1000 ms followed by a 10 ms repolarization to −100 mV (Nav1.7) or −110 mV (Nav1.5) was given to generate fractional channel inactivation of ˜50%, followed by a 10 ms test pulse to −10 mV (Nav1.7) or −30 mV (Nav1.5) to measure peak current in control conditions and after compound addition. The following recording solutions were used (mM). External: 150 NaCl, 2 CaCl2, 5 KCl, 1 Mg Cl2, 10 HEPES, 12 Dextrose; internal: 120 CsF, 30 CsCl, 10 EGTA, 5 HEPES, 5 NaF, 2 MgCl2.
(§2) For all electrophysiology experiments, offline analysis was used to correct for current rundown and to determine percent inhibition as a function of drug concentration. IC50 values were determined by fitting to the Hill equation.

[2] = molecular target: T2, human Nav1.5 channels stably expressed in HEK 293 cells (Homo sapiens, UniProt Q14524); experiment: as above; details: selectivity over Nav1.5
T2 construct: expressed in transfected cells
T2 sequence (Q14524 whole entry): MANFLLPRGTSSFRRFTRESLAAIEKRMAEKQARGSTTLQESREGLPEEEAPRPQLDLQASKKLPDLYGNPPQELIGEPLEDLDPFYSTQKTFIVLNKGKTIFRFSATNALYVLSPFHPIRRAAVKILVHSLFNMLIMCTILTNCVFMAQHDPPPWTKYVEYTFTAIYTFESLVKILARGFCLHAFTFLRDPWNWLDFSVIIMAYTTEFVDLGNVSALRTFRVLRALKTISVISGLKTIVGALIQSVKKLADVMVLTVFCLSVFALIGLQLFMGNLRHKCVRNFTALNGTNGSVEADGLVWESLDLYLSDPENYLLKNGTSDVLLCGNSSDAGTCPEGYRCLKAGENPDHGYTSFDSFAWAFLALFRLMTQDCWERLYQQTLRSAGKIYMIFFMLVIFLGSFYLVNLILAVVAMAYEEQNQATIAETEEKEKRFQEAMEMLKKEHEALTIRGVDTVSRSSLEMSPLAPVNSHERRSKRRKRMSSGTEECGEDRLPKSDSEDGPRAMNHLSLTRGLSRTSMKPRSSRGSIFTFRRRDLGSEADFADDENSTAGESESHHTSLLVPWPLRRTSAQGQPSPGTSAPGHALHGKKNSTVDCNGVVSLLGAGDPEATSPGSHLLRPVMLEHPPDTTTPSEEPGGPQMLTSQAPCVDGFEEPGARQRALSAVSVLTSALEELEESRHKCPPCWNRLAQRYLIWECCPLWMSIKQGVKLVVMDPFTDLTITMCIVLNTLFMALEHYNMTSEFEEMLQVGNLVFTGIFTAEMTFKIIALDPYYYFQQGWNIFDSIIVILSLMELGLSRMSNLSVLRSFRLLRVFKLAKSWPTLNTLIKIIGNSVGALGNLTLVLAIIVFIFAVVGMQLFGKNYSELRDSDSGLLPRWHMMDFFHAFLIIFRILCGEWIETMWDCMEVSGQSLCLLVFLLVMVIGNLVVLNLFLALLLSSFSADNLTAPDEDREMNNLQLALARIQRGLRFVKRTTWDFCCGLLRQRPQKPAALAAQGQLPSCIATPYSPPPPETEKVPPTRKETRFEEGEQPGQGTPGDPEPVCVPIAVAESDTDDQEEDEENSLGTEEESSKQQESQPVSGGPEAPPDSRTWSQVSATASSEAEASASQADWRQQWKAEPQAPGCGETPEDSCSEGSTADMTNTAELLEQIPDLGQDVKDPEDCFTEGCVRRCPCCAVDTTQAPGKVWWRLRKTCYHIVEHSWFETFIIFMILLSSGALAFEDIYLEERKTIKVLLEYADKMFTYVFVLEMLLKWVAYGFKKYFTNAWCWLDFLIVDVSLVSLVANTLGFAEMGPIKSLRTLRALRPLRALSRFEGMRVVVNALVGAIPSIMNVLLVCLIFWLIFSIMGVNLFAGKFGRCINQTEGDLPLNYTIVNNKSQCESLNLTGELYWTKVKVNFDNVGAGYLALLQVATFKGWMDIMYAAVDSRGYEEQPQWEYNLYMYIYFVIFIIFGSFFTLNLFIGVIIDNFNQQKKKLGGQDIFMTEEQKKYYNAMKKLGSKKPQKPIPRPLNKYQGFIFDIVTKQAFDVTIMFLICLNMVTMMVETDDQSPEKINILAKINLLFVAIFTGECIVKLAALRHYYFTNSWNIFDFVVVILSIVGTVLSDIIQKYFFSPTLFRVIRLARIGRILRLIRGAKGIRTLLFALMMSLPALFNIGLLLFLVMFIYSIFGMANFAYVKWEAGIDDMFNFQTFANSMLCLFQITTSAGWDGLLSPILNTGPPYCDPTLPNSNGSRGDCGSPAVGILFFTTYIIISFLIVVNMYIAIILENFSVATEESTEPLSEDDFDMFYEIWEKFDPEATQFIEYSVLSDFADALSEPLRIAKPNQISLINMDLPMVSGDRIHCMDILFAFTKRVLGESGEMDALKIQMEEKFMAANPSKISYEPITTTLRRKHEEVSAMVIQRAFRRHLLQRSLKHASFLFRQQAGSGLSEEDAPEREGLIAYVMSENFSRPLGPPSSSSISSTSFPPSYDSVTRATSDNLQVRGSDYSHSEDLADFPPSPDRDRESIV
Procedure: as §1, §2

[3] = molecular target: T1, human Nav1.7 channels stably expressed in HEK 293 cells; experiment: PatchXpress 7000 automated patch-clamp, sodium current; details: 22° C., read-out: potency for the Nav 1.7 sodium ion channel (as measured by PatchXpress)
In short: (§3)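 IC50 values came from Hill-equation fits of rundown-corrected inhibition. PatchXpress recordings at 22° C held cells 20 mV negative to V0.5 inact and applied 10 Hz trains of 30 ms steps to −20 mV (Nav1.7) or an 8000 ms prepulse 7 mV positive to V0.5 inact. […]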

[4] = molecular target: T2, human Nav1.5 channels stably expressed in HEK 293 cells; experiment: as above; details: selectivity over Nav1.5
In short: as §3

Q: With `CC(CCc1ccccc1)n1c(=O)oc2cc(S(=O)(=O)Nc3ncns3)ccc21` (centres unmarked) [Compound 4-11, 3-(1-methyl-3-phenylpropyl)-2-oxo-N-1,2,4-thiadiazol-5-yl-2,3-dihydro-1,3-benzoxazole-6-sulfonamide] as the compound, how does the pIC50 [1] read?
A: 5.76

Q: And the “ratio of Nav 1.5:Nav 1.7 potency, determined by IonWorks measurement” value (from here on “ratio … by IonWorks measurement”) [2]?
A: 9

Q: And the pIC50 [3]?
A: 5.75

Q: And the “ratio of Nav 1.5:Nav 1.7 potency, determined by PatchXpress measurement” value (“ratio … by PatchXpress measurement” below) [4]?
A: > 17

Q: With `O=c1oc2cc(S(=O)(=O)Nc3ncns3)ccc2n1Cc1ccccc1-c1cccc2c1CNCC2` [Compound 3-4, 2-oxo-3-[2-(1,2,3,4-tetrahydroisoquinolin-8-yl)benzyl]-N-1,2,4-thiadiazol-5-yl-2,3-dihydro-1,3-benzoxazole-6-sulfonamide] as the compound, how does the pIC50 [1] read?
A: 6.80

Q: And the “ratio … by IonWorks measurement” value [2]?
A: > 209

Q: And the pIC50 [3]?
A: 6.96

Q: What about the “ratio … by PatchXpress measurement” value [4] of the same compound?
A: > 272

Q: `O=c1oc2cc(S(=O)(=O)Nc3ncns3)ccc2n1Cc1ccccc1Cl` [Compound 1-12, 3-(2-chlorobenzyl)-2-oxo-N-1,2,4-thiadiazol-5-yl-2,3-dihydro-1,3-benzoxazole-6-sulfonamide] was tested. Which pIC50 [1] did it give?
A: 6.39

Q: And the “ratio … by IonWorks measurement” value [2]?
A: 67

Q: What about the pIC50 [3] of the same compound?
A: 6.39

Q: And the “ratio … by PatchXpress measurement” value [4]?
A: 67

Q: Which results are given for `O=c1oc2cc(S(=O)(=O)Nc3ncns3)c(F)cc2n1Cc1cccc2c1CNCC2` [Compound 11-5, 5-Fluoro-2-oxo-3-(1,2,3,4-tetrahydroisoquinolin-8-ylmethyl)-N-(1,2,4-thiadiazol-5-yl)-2,3-dihydro-1,3-benzoxazole-6-sulfonamide]?
A: pIC50 [1]: 7.00; ratio of Nav 1.5:Nav 1.7 potency, determined by IonWorks measurement [2]: 182; pIC50 [3]: 7.16; ratio of Nav 1.5:Nav 1.7 potency, determined by PatchXpress measurement [4]: 139

Q: With `NCc1ccccc1Cn1c(=O)oc2cc(S(=O)(=O)Nc3ncns3)ccc21` [Compound 1-14, 3-[2-(aminomethyl)benzyl]-2-oxo-N-1,2,4-thiadiazol-5-yl-2,3-dihydro-1,3-benzoxazole-6-sulfonamide] as the compound, how does the pIC50 [1] read?
A: 6.58

Q: What about the “ratio … by IonWorks measurement” value [2] of the same compound?
A: > 125

Q: What about the pIC50 [3] of the same compound?
A: 6.44

Q: What about the “ratio … by PatchXpress measurement” value [4] of the same compound?
A: 45

Q: Which results are given for `CC(c1ccccc1C(F)(F)F)n1c(=O)oc2cc(S(=O)(=O)Nc3ncns3)ccc21` (centres unmarked) [Compound 4-9, 2-oxo-N-1,2,4-thiadiazol-5-yl-3-{1-[2-(trifluoromethyl)phenyl]ethyl}-2,3-dihydro-1,3-benzoxazole-6-sulfonamide]?
A: pIC50 [1]: 5.94; ratio of Nav 1.5:Nav 1.7 potency, determined by IonWorks measurement [2]: 22; pIC50 [3]: 5.58; ratio of Nav 1.5:Nav 1.7 potency, determined by PatchXpress measurement [4]: > 11

Q: `O=c1oc2cc(S(=O)(=O)Nc3ncns3)ccc2n1Cc1ccccc1-c1cccc2c1CCNC2` [Compound 3-8, 2-oxo-3-[2-(1,2,3,4-tetrahydroisoquinolin-5-yl)benzyl]-N-1,2,4-thiadiazol-5-yl-2,3-dihydro-1,3-benzoxazole-6-sulfonamide] was tested. Which pIC50 [1] did it give?
A: 6.49

Q: And the “ratio … by IonWorks measurement” value [2]?
A: > 103

Q: What about the pIC50 [3] of the same compound?
A: 6.56

Q: And the “ratio … by PatchXpress measurement” value [4]?
A: > 108

Q: `O=c1oc2cc(S(=O)(=O)Nc3ncns3)ccc2n1Cc1cccc(Cl)c1` [Compound 1-11, 3-(3-chlorobenzyl)-2-oxo-N-1,2,4-thiadiazol-5-yl-2,3-dihydro-1,3-benzoxazole-6-sulfonamide] was tested. Which pIC50 [1] did it give?
A: 6.44

Q: What about the “ratio … by IonWorks measurement” value [2] of the same compound?
A: 59

Q: What about the pIC50 [3] of the same compound?
A: 6.44

Q: What about the “ratio … by PatchXpress measurement” value [4] of the same compound?
A: 59

Q: Which results are given for `NC/C=C/c1ccccc1Cn1c(=O)oc2cc(S(=O)(=O)Nc3ncns3)c(F)cc21` [Compound 12-3, 3-{2-[(1E)-3-Aminoprop-1-en-1-yl]benzyl}-5-fluoro-2-oxo-N-(1,2,4-thiadiazol-5-yl)-2,3-dihydro-1,3-benzoxazole-6-sulfonamide]?
A: pIC50 [1]: 8.30; ratio of Nav 1.5:Nav 1.7 potency, determined by IonWorks measurement [2]: 6084; pIC50 [3]: 7.57; ratio of Nav 1.5:Nav 1.7 potency, determined by PatchXpress measurement [4]: 1096

Q: `O=c1oc2cc(S(=O)(=O)Nc3ncns3)ccc2n1Cc1ccccc1C1=CCNCCC1` [Compound 3-5, 2-oxo-3-[2-(2,5,6,7-tetrahydro-1H-azepin-4-yl)benzyl]-N-1,2,4-thiadiazol-5-yl-2,3-dihydro-1,3-benzoxazole-6-sulfonamide] was tested. Which pIC50 [1] did it give?
A: 6.61

Q: And the “ratio … by IonWorks measurement” value [2]?
A: > 133

Q: And the pIC50 [3]?
A: 6.95

Q: And the “ratio … by PatchXpress measurement” value [4]?
A: > 271

Q: With `C[C@@H](c1cccc2c1CNCC2)n1c(=O)oc2cc(S(=O)(=O)Nc3ncns3)c(F)cc21` [Compound 11-6, 5-fluoro-2-oxo-3-[(1S)-1-(1,2,3,4-tetrahydroisoquinolin-8-yl)ethyl]-N-1,2,4-thiadiazol-5-yl-2,3-dihydro-1,3-benzoxazole-6-sulfonamide] as the compound, how does the pIC50 [1] read?
A: 6.24

Q: And the “ratio … by IonWorks measurement” value [2]?
A: 57

Q: And the pIC50 [3]?
A: 6.49

Q: What about the “ratio … by PatchXpress measurement” value [4] of the same compound?
A: > 93
